One experiment concerns the target ERRα ligand binding domain (ERRα-LBD) (Homo sapiens (Human), UniProt P11474). Description: ERRα AlphaScreen Assay. Format: biochemical. The conditions noted are these: disruption of binding of ERRα-LBD protein to biotin-PGC1α-3 co-activator peptide. Summed up:
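Disruption of co-activator binding read by AlphaScreen: compounds in triplicate, 1% DMSO, Tris pH 7.5 buffer, room temperature. Bacterially expressed 6His-SUMO-ERRα-LBD at 0.81 nM with beads for 1 h, then 15 nM biotinylated PGC1α peptide for 2 h. IC50 from four-parameter fits, averaged as pIC50.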
ERRα ligand binding domain (ERRα-LBD), sequence (P11474 193-421): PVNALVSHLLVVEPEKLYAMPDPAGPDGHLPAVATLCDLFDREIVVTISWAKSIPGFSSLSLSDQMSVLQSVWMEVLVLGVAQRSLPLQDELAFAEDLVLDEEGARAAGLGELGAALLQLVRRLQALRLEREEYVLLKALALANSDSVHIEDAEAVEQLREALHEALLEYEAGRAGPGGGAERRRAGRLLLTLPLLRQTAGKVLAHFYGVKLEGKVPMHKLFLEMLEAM
As to `COc1cc(C2CC(=O)Nc3n[nH]cc32)ccc1OCc1ccc(N)cc1C(F)(F)F` (stereo not shown) [Example 135, 4-(4-{[4-amino-2-(trifluoromethyl)phenyl]methoxy}-3-methoxyphenyl)-2H,4H,5H,6H, 7H-pyrazolo[3,4-b]pyridin-6-one], the “mean pIC50” value is listed as no less than 8.
Same read-out and setting: with `COc1cc(C2CC(=O)Nc3n[nH]nc32)ccc1OCc1ccc(N)cc1C(F)(F)F` (stereo not shown) [Example 136, 7-(4-{[4-amino-2-(trifluoromethyl)phenyl]methoxy}-3-methoxyphenyl)-2H,4H,5H,6H, 7H-[1,2,3]triazolo[4,5-b]pyridin-5-one] the figure was no less than 8.
On to `COc1cc(C2CC(=O)Nc3n[nH]cc32)ccc1OCc1ccc(N(C)C)cc1C(F)(F)F` (stereo not shown) [Example 138, 4-(4-{[4-(dimethylamino)-2-(trifluoromethyl)phenyl]methoxy}-3-methoxyphenyl)-2H,4H,5H,6H, 7H-pyrazolo[3,4-b]pyridin-6-one], for which the “mean pIC50” value is no less than 8.
The same measure, in the same setting: next, `CNc1ccc(COc2ccc(C3CC(=O)Nc4n[nH]cc43)cc2OC)c(C(F)(F)F)c1` (stereo not shown) [Example 141, 4-(3-methoxy-4-{[4-(methylamino)-2-(trifluoromethyl)phenyl]methoxy}phenyl)-2H,4H,5H,6H,7H-pyrazolo[3,4-b]pyridin-6-one]: no less than 8; `COc1cc(C2CC(=O)Nc3n[nH]cc32)ccc1OCc1ccc(O)cc1C(F)(F)F` (stereo not shown) [Example 154, 4-(4-{[4-hydroxy-2-(trifluoromethyl)phenyl]methoxy}-3-methoxyphenyl)-2H,4H,5H,6H, 7H-pyrazolo[3,4-b]pyridin-6-one]: no less than 8.
On the same count and under the same terms, next, `COc1cc(-c2cc(=O)[nH]c3n[nH]cc23)ccc1OCc1ccc(N)cc1C(F)(F)F` [Example 173, 4-(4-{[4-amino-2-(trifluoromethyl)phenyl]methoxy}-3-methoxyphenyl)-2H,6H,7H-pyrazolo[3,4-b]pyridin-6-one]: no less than 8.
The same measure, in the same setting: with `COc1cc(-c2cc(=O)[nH]c3n[nH]cc23)ccc1OCc1ccccc1OC(F)F` [Example 180, 4-(4-{[2-(difluoromethoxy)phenyl]methoxy}-3-methoxyphenyl)-2H,6H, 7H-pyrazolo[3,4-b]pyridin-6-one] the figure was no less than 8.

Still in this experiment, the particulars now being: disruption of binding of ERRα-LBD protein to biotin-PGC1α-3 co-activator peptide; read-out: mean pIC50 (converted).
Turning to `CCCOC(=O)c1ccccc1COc1ccc(C2CC(=O)Nc3n[nH]cc32)cc1OC` (stereo not shown) [Example 125, propyl 2-(2-methoxy-4-{6-oxo-2H,4H,5H,6H,7H-pyrazolo[3,4-b]pyridin-4-yl}phenoxymethyl)benzoate], the IC50 is 0.1 to 1 µM.
On the same count and under the same terms, next, `CCCCOC(=O)c1ccccc1COc1ccc(C2CC(=O)Nc3n[nH]cc32)cc1OC` (stereo not shown) [Example 126, butyl 2-(2-methoxy-4-{6-oxo-2H,4H,5H,6H,7H-pyrazolo[3,4-b]pyridin-4-yl}phenoxymethyl)benzoate]: 0.1 to 1 µM; `COc1cc(C2CC(=O)Nc3n[nH]cc32)ccc1OCc1ccccc1C(=O)OC(C)C` (stereo not shown) [Example 127, propan-2-yl 2-(2-methoxy-4-{6-oxo-2H,4H,5H,6H,7H-pyrazolo[3,4-b]pyridin-4-yl}phenoxymethyl)benzoate]: 0.1 to 1 µM.
Same read-out and setting: with `CCOC(=O)c1cc(C2CC(=O)Nc3n[nH]cc32)ccc1OCc1ccccc1C(F)(F)F` (stereo not shown) [Example 128, ethyl 5-{6-oxo-2H,4H,5H,6H,7H-pyrazolo[3,4-b]pyridin-4-yl}-2-{[2-(trifluoromethyl)phenyl]methoxy}benzoate] the figure was 0.01 to 0.1 µM.
On the same count and under the same terms, with `NC(=O)c1cc(C2CC(=O)Nc3n[nH]cc32)ccc1OCc1ccccc1C(F)(F)F` (stereo not shown) [Example 130, 5-{6-oxo-2H,4H,5H,6H, 7H-pyrazolo[3,4-b]pyridin-4-yl}-2-{[2-(trifluoromethyl)phenyl]methoxy}benzamide] the figure was 0.1 to 1 µM; with `O=C1CC(c2ccc(OCc3ccccc3C(F)(F)F)c(C(=O)Nc3nnc[nH]3)c2)c2c[nH]nc2N1` (stereo not shown) [Example 131, 5-{6-oxo-2H, 4H,5H, 6H, 7H-pyrazolo[3,4-b]pyridin-4-yl}-N-(4H-1,2,4-triazol-3-yl)-2-{[2-(trifluoromethyl)phenyl]methoxy}benzamide], 0.1 to 1 µM; with `O=C1CC(c2ccc(OCc3ccccc3C(F)(F)F)c(C(=O)OCCO)c2)c2c[nH]nc2N1` (stereo not shown) [Example 132, 2-hydroxyethyl 5-{6-oxo-2H,4H,5H,6H, 7H-pyrazolo[3,4-b]pyridin-4-yl}-2-{[2-(trifluoromethyl)phenyl]methoxy}benzoate], 0.1 to 1 µM.
For `COc1cc(C2CC(=O)Nc3c[nH]nc32)ccc1OCc1ccc(N)cc1C(F)(F)F` (stereo not shown) [Example 137, 7-(4-{[4-amino-2-(trifluoromethyl)phenyl]methoxy}-3-methoxyphenyl)-2H,4H,5H,6H, 7H-pyrazolo[4,3-b]pyridin-5-one], the IC50 was 0.1 to 1 µM.
The same measure, in the same setting: with `COc1cc(C2CC(=O)Nc3n[nH]cc32)ccc1OCc1ccc(NC(C)=O)cc1C(F)(F)F` (stereo not shown) [Example 139, N-{4-[(2-methoxy-4-{6-oxo-2H,4H,5H,6H,7H-pyrazolo[3,4-b]pyridin-4-yl}phenoxy)methyl]-3-(trifluoromethyl)phenyl}acetamide] the figure was 0.01 to 0.1 µM; with `COC(=O)Cc1ccc(COc2ccc(C3CC(=O)Nc4n[nH]cc43)cc2OC)c(C(F)(F)F)c1` (stereo not shown) [Example 148, methyl 2-[4-(2-methoxy-4-{6-oxo-2H,4H,5H,6H,7H-pyrazolo[3,4-b]pyridin-4-yl}phenoxymethyl)-3-(trifluoromethyl)phenyl]acetate], 0.1 to 1 µM.
On the same count and under the same terms, with `COc1cc(C2CC(=O)Nc3n[nH]cc32)ccc1OCc1ccc(CC(=O)O)cc1C(F)(F)F` (stereo not shown) [Example 151, 2-{4-[(2-methoxy-4-{6-oxo-2H,4H,5H,6H, 7H-pyrazolo[3,4-b]pyridin-4-yl}phenoxy)methyl]-3-(trifluoromethyl)phenyl}acetic acid] the figure was 0.1 to 1 µM; with `COc1cc(C2CC(=O)Nc3n[nH]cc32)ccc1OCc1ccc(C(C)(C)CO)cc1C(F)(F)F` (stereo not shown) [Example 152, 4-(4-{[4-(1-hydroxy-2-methylpropan-2-yl)-2-(trifluoromethyl)phenyl]methoxy}-3-methoxyphenyl)-2H,4H,5H,6H, 7H-pyrazolo[3,4-b]pyridin-6-one], 0.01 to 0.1 µM.
As for `COc1cc(C2CC(=O)Nc3n[nH]cc32)ccc1OCc1ccc(CC(C)(C)O)cc1C(F)(F)F` (stereo not shown) [Example 153, 4-(4-{[4-(2-hydroxy-2-methylpropyl)-2-(trifluoromethyl)phenyl]methoxy}-3-methoxyphenyl)-2H,4H,5H,6H,7H-pyrazolo[3,4-b]pyridin-6-one], the IC50 was 0.01 to 0.1 µM.
Same read-out and setting: with `COc1cc(C2CC(=O)Nc3c[nH]nc32)ccc1OCc1ccc(CCO)cc1C(F)(F)F` (stereo not shown) [Example 156, 7-(4-{[4-(2-hydroxyethyl)-2-(trifluoromethyl)phenyl]methoxy}-3-methoxyphenyl)-2H,4H,5H,6H, 7H-pyrazolo[4,3-b]pyridin-5-one] the figure was 0.01 to 0.1 µM; with `COc1cc(C2CC(=O)Nc3n[nH]cc32)ccc1OCc1cccc(OCCO)c1C(F)(F)F` (stereo not shown) [Example 160, 4-(4-{[3-(2-hydroxyethoxy)-2-(trifluoromethyl)phenyl]methoxy}-3-methoxyphenyl)-2H,4H,5H,6H,7H-pyrazolo[3,4-b]pyridin-6-one], 0.1 to 1 µM; with `Nc1cc(C2CC(=O)Nc3n[nH]cc32)ccc1OCc1ccccc1C(F)(F)F` (stereo not shown) [Example 161, 4-(3-amino-4-{[2-(trifluoromethyl)phenyl]methoxy}phenyl)-2H,4H,5H,6H, 7H-pyrazolo[3,4-b]pyridin-6-one], 0.1 to 1 µM.
On to `CN(C)c1cc(OCc2ccccc2C(F)(F)F)ccc1C1CC(=O)Nc2n[nH]cc21` (stereo not shown) [Example 162, 4-[2-(dimethylamino)-4-{[2-(trifluoromethyl)phenyl]methoxy}phenyl]-2H,4H,5H,6H, 7H-pyrazolo[3,4-b]pyridin-6-one], for which the IC50 is 0.1 to 1 µM.
The same measure, in the same setting: with `COCCCOc1cc(C2CC(=O)Nc3n[nH]cc32)ccc1OCc1ccccc1C(F)(F)F` (stereo not shown) [Example 163, 4-[3-(3-methoxypropoxy)-4-{[2-(trifluoromethyl)phenyl]methoxy}phenyl]-2H,4H,5H,6H,7H-pyrazolo[3,4-b]pyridin-6-one] the figure was 0.01 to 0.1 µM; with `COCCOc1cc(C2CC(=O)Nc3n[nH]cc32)ccc1OCc1ccccc1C(F)(F)F` (stereo not shown) [Example 164, 4-[3-(2-methoxyethoxy)-4-{[2-(trifluoromethyl)phenyl]methoxy}phenyl]-2H,4H,5H,6H, 7H-pyrazolo[3,4-b]pyridin-6-one], 0.01 to 0.1 µM.
Same read-out and setting: with `O=C1CC(c2cnc(OCc3ccccc3C(F)(F)F)nc2)c2c[nH]nc2N1` (stereo not shown) [Example 165, 4-(2-{[2-(trifluoromethyl)phenyl]methoxy}pyrimidin-5-yl)-2H,4H,5H,6H, 7H-pyrazolo[3,4-b]pyridin-6-one] the figure was 0.1 to 1 µM; with `COc1cc(C2CC(=N)Nc3n[nH]cc32)ccc1OCc1ccccc1C(F)(F)F` (stereo not shown) [Example 167, 4-(3-methoxy-4-{[2-(trifluoromethyl)phenyl]methoxy}phenyl)-2H,4H,5H,6H, 7H-pyrazolo[3,4-b]pyridin-6-imine], 0.1 to 1 µM.
On the same count and under the same terms, with `COc1cc(-c2cc(=O)[nH]c3[nH]ccc23)ccc1OCc1ccccc1C(F)(F)F` [Example 168, 4-(3-methoxy-4-{[2-(trifluoromethyl)phenyl]methoxy}phenyl)-1H,6H, 7H-pyrrolo[2,3-b]pyridin-6-one] the figure was 0.1 to 1 µM; with `COc1ccccc1COc1ccc(-c2cc(=O)[nH]c3n[nH]cc23)cc1OC` [Example 171, 4-{3-methoxy-4-[(2-methoxyphenyl)methoxy]phenyl}-2H,6H, 7H-pyrazolo[3,4-b]pyridin-6-one], 0.01 to 0.1 µM.
For `COc1cc(-c2cc(=O)[nH]c3n[nH]cc23)ccc1OCc1ccncc1C(F)(F)F` [Example 172, 4-(3-methoxy-4-{[3-(trifluoromethyl)pyridin-4-yl]methoxy}phenyl)-2H,6H, 7H-pyrazolo[3,4-b]pyridin-6-one], the IC50 was 0.1 to 1 µM.
